Experimental data taken from patent publication US20250255992A1, “COXIB-DERIVED CONJUGATE COMPOUNDS AND METHODS OF USE THEREOF” (Reiley Pharmaceuticals, Inc., priority 2020, published 2025).

Assays:
ovine COX-1 = ovine COX-1 (Ovis aries (Sheep), UniProt P05979); assay: COX-1/-2 enzyme assay (EIA kit), COX-1; type: biochemical; details: ovine COX-1 enzyme immunoassay
Procedure: COX-1/-2 enzyme assay: The ability of compounds to inhibit ovine COX-1 and human COX-2 is determined using a commercially available enzyme immunoassay (EIA) kit (catalog no. 701090 (COX-1); 701080 (COX-2) Cayman Chemical Co., Ann Arbor, MI, USA) according to the manufacturer's protocol. COX catalyzes the first step in the biosynthesis of AA to PGH2. PGF2α, produced from PGH2 by reduction with stannous chloride, was measured by EIA (ACE™ competitive EIA, Cayman Chemical, Ann Arbor, MI, USA). Briefly, to a series of supplied reaction buffer solutions [960 μl 0.1 M Tris-HCl (pH 8.0) containing 5 mM EDTA and 2 mM phenol] with either COX-1 or COX-2 (10 μl) enzyme in the presence of heme (10 μl), 10 μl of various concentrations of test drug solutions are added. These solutions are incubated for 15 min at 37° C. and subsequently 10 μl AA solution (100 μM) is added. The COX reaction is stopped by the addition of 30 μl stannous chloride after 2 min, mixed immediately, supernatants are 2000-fold diluted. The produced PGF2α is measured by EIA. This assay is based on the competition between PGs and a PG-acetylcholinesterase conjugate (PG tracer) for a limited amount of PG antiserum. The amount of PG tracer that is able to bind to the PG antiserum is inversely proportional to the concentration of PGs in the wells since the concentration of the PG tracer is held at a constant while the concentration of PGs varies. The specific antiserum-PG complex binds to a mouse anti-rabbit IgG that had been previously attached to the well. The plate is washed to remove any unbound reagents and 200 μl Ellman's reagent (5,5′-dithiobis-(2-nitrobenzoic acid), which contains the substrate to acetylcholine esterase, is added to the well. The product of this enzymatic reaction generates a distinct yellow color that absorbs at 406 nm. The intensity of this color, determined by spectrophotometry, is proportional to the amount of PG tracer bound to the well, which is inversely proportional to the amount of PGs present in the well during the incubation. Percent inhibition is calculated by the comparison of the compounds treated to the various control incubations.
(§1) Dose-response curves are generated using XLFit (IDBS, Surrey, UK) or Prism (GraphPad Software, La Jolla, CA, US) to calculate IC50 values for each compound tested.

COX-2 = COX-2 (Mus musculus (Mouse), UniProt Q05769); assay: Cell-based COX-2 assay (PGE2 in LPS/IFN-g stimulated RAW264.7 cells); details: RAW264.7 murine macrophages, LPS + IFN-g, PGE2 readout
Procedure: Cell culture: RAW264.7 murine macrophages are obtained from the Cell Bank of Shanghai Institute of Biochemistry and Cell Biology, Chinese Academy of Sciences (Shanghai, China) and cultured in Dulbecco's modified Eagle's medium containing 100 U/ml penicillin and 100 µg/ml streptomycin at 37° C. in 5% CO2.
The cells are pre-incubated for 30 min with various doses of compounds and stimulated for 7 h with […] LPS and 10 U/ml IFN-g. The cell culture supernatants are collected immediately following treatment and centrifuged at 1,000 rpm for 5 min to remove the particulate matter. PGE2 is determined using a Prostaglandin E2 assay kit (catalog no. 62P2APEB; Cisbio Co.). […] Replace the standard by 10 μL of diluent and PGE2-d2 by 5 μL of reconstitution buffer, Cal0 (for positive control), replace the standard by 10 µL of diluent. Incubate at 4° C. overnight.
as §1

human COX-2 = human COX-2 (Homo sapiens (Human), UniProt P35354); type: biochemical; details: read-out: COX-2 IC50 (μM) enzyme
Sequence of human COX-2 (P35354 18-604 limits assumed): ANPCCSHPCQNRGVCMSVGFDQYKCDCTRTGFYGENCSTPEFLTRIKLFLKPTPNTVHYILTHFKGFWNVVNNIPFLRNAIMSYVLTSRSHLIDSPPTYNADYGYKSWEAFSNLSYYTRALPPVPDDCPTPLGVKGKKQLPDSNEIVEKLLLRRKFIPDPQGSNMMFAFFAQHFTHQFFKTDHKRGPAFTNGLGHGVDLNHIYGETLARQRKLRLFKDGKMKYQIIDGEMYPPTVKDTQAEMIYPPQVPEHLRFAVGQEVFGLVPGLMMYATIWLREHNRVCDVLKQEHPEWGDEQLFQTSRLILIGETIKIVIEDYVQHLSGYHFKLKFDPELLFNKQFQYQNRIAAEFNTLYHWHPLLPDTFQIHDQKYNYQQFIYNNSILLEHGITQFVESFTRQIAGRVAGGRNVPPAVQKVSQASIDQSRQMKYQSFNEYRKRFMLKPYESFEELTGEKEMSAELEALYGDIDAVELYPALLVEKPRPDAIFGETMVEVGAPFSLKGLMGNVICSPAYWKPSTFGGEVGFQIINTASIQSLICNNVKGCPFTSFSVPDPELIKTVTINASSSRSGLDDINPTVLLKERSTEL

Sequence of ovine COX-1 (P05979 25-600 limits assumed): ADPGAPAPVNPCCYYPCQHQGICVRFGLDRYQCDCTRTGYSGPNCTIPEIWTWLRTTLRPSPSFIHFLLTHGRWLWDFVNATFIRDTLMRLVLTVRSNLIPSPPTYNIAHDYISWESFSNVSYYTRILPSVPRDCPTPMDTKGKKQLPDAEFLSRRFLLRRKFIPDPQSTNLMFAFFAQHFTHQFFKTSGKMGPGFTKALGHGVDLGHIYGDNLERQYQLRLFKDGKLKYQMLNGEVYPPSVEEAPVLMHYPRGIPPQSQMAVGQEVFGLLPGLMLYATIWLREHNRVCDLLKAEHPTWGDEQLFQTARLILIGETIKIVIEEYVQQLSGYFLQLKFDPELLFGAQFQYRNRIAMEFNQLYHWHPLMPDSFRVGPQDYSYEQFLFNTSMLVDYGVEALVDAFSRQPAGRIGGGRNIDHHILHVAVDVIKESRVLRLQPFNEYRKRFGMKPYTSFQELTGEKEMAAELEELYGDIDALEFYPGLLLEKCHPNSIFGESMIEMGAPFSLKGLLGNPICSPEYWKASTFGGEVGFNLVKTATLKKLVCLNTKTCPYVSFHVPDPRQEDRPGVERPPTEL
Sequence of COX-2 (Q05769 18-604): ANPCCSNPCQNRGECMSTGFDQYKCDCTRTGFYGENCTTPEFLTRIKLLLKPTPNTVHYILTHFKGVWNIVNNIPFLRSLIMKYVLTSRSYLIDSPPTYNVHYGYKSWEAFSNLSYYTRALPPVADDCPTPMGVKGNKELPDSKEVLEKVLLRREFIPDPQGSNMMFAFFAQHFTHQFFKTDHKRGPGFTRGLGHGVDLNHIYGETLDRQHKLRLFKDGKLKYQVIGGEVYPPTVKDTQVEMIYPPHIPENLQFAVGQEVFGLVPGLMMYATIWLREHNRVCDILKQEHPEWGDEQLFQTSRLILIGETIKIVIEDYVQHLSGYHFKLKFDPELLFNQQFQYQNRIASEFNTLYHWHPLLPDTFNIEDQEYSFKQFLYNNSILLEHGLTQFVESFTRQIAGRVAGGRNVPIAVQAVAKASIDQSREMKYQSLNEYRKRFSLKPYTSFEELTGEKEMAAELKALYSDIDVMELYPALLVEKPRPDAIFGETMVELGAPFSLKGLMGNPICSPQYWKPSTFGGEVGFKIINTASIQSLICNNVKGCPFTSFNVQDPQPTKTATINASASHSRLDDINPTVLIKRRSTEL

Structure (SMILES): NS(=O)(=O)c1ccc(-n2nc(COCCCCCCC[N+]34CC[S][Re]35(=[O])[S]CC[N]5CC4)cc2-c2ccc(F)cc2)cc1 (stereo not drawn) [Compound 16]
- IC50 (ovine COX-1): > 10 µM
- IC50 (COX-2): 0.21 µM
- IC50 (human COX-2): 0.31 µM

Structure (SMILES): NS(=O)(=O)c1ccc(-c2c(-c3ccccc3)noc2CCCCCCC[N+]23CC[S][Re]24(=[O])[S]CC[N]4CC3)cc1 (stereo not drawn) [Compound 27]
- IC50 (ovine COX-1): > 10 µM
- IC50 (COX-2): 0.07 µM
- IC50 (human COX-2): 0.07 µM

Structure (SMILES): NS(=O)(=O)c1ccc(-n2nc(CCCCCCCCC[N+]34CC[S][Re]35(=[O])[S]CC[N]5CC4)cc2-c2ccc(F)cc2)cc1 (stereo not drawn) [Compound 5]
- IC50 (ovine COX-1): > 10 µM
- IC50 (COX-2): 0.15 µM
- IC50 (human COX-2): 0.13 µM

Structure (SMILES): COc1ccc(-c2cc(COCCCCCCCN3CC[S][Re]4(=[O])[S]CC[N]4CC3)nn2-c2ccc(S(N)(=O)=O)cc2)cc1 (stereo not drawn) [Compound 20]
- IC50 (COX-2): 0.22 µM
- IC50 (human COX-2): 0.54 µM

Structure (SMILES): NS(=O)(=O)c1ccc(-n2nc(CCCCCCCN3CC[S][Re]4(=[O])[S]CC[N]4CC3)cc2-c2ccc(Cl)cc2)cc1 (stereo not drawn) [Compound 7]
- IC50 (human COX-2): > 10 µM

Structure (SMILES): NS(=O)(=O)c1ccc(-n2nc(CCCCCCCCC[N+]34CC[S][Re]35(=[O])[S]CC[N]5CC4)cc2-c2ccc(Cl)cc2)cc1 (stereo not drawn) [Compound 8]
- IC50 (COX-2): 0.2 µM
- IC50 (human COX-2): 0.19 µM

Structure (SMILES): NS(=O)(=O)c1ccc(-n2nc(CCCCCCCN3CC[S][Re]4(=[O])[S]CC[N]4CC3)cc2-c2ccc(F)cc2)cc1 (stereo not drawn) [Compound 3]
- IC50 (human COX-2): > 10 µM

Structure (SMILES): NS(=O)(=O)c1ccc(-n2nc(CCCCCCN3CC[S][Re]4(=[O])[S]CC[N]4CC3)cc2-c2ccc(Cl)cc2)cc1 (stereo not drawn) [Compound 6]
- IC50 (human COX-2): 3.31 µM

Structure (SMILES): NS(=O)(=O)c1ccc(-c2c(-c3ccccc3)noc2CCCCCC[N+]23CC[S][Re]24(=[O])[S]CC[N]4CC3)cc1 (stereo not drawn) [Compound 26]
- IC50 (COX-2): 0.23 µM
- IC50 (human COX-2): 0.16 µM

Structure (SMILES): COc1ccc(-c2cc(COCCCCCCN3CC[S][Re]4(=[O])[S]CC[N]4CC3)nn2-c2ccc(S(N)(=O)=O)cc2)cc1 (stereo not drawn) [Compound 19]
- IC50 (human COX-2): 4.51 µM

Structure (SMILES): Cc1ccc(-c2cc(COCCCCCCC[N+]34CC[S][Re]35(=[O])[S]CC[N]5CC4)nn2-c2ccc(S(N)(=O)=O)cc2)cc1 (stereo not drawn) [Compound 21]
- IC50 (COX-2): 0.15 µM
- IC50 (human COX-2): 2.48 µM

Structure (SMILES): NS(=O)(=O)c1ccc(-n2nc(CCCCCCCCN3CC[S][Re]4(=[O])[S]CC[N]4CC3)cc2-c2ccc(F)cc2)cc1 (stereo not drawn) [Compound 4]
- IC50 (COX-2): 0.32 µM
- IC50 (human COX-2): 0.59 µM

Structure (SMILES): NS(=O)(=O)c1ccc(-n2nc(COCCCCCC[N+]34CC[S][Re]35(=[O])[S]CC[N]5CC4)cc2-c2ccc(F)cc2)cc1 (stereo not drawn) [Compound 14]
- IC50 (human COX-2): 2.36 µM

Structure (SMILES): Cc1ccc(-c2cc(CCCCCCCCCN3CC[S][Re]4(=[O])[S]CC[N]4CC3)nn2-c2ccc(S(N)(=O)=O)cc2)cc1 (stereo not drawn) [Compound 11]
- IC50 (COX-2): 0.2 µM
- IC50 (human COX-2): 4.49 µM

Structure (SMILES): NS(=O)(=O)c1ccc(-n2nc(COCCCC[N+]34CC[S][Re]35(=[O])[S]CC[N]5CC4)cc2-c2ccc(F)cc2)cc1 (stereo not drawn) [Compound 15]
- IC50 (human COX-2): 2.37 µM

Structure (SMILES): NS(=O)(=O)c1ccc(-n2nc(COCCCOCCCN3CC[S][Re]4(=[O])[S]CC[N]4CC3)cc2-c2ccc(F)cc2)cc1 (stereo not drawn) [Compound 17]
- IC50 (human COX-2): 4.15 µM

Structure (SMILES): COc1ccc(-c2cc(CCCCCCCCC[N+]34CC[S][Re]35(=[O])[S]CC[N]5CC4)nn2-c2ccc(S(N)(=O)=O)cc2)cc1 (stereo not drawn) [Compound 10]
- IC50 (ovine COX-1): > 10 µM
- IC50 (COX-2): 0.16 µM
- IC50 (human COX-2): 0.06 µM

Structure (SMILES): NS(=O)(=O)c1ccc(-n2nc(COCCCCCCN3CC[S][Re]4(=[O])[S]CC[N]4CC3)cc2-c2ccc(Cl)cc2)cc1 (stereo not drawn) [Compound 18]
- IC50 (human COX-2): > 10 µM

Structure (SMILES): NS(=O)(=O)c1ccc(-n2nc(CCCCCCCCN3CC[S][Re]4(=[O])[S]CC[N]4CC3)cc2-c2ccc(Cl)cc2)cc1 (stereo not drawn) [Compound 9]
- IC50 (COX-2): 0.19 µM
- IC50 (human COX-2): 0.11 µM

Structure (SMILES): NS(=O)(=O)c1ccc(-n2nc(CCCCCN3CC[S][Re]4(=[O])[S]CC[N]4CC3)cc2-c2ccc(F)cc2)cc1 (stereo not drawn) [Compound 2]
- IC50 (COX-2): 0.66 µM
- IC50 (human COX-2): 1.33 µM

Structure (SMILES): NS(=O)(=O)c1ccc(-c2c(-c3ccccc3)noc2CCCCCCCCC[N+]23CC[S][Re]24(=[O])[S]CC[N]4CC3)cc1 (stereo not drawn) [Compound 28]
- IC50 (ovine COX-1): > 10 µM
- IC50 (COX-2): 0.025 µM
- IC50 (human COX-2): 0.019 µM
